Two compounds from ChEMBL document CHEMBL4387741, “Optimization of novel reversible Bruton's tyrosine kinase inhibitors identified using Tethering-fragment-based screens” (Bioorg Med Chem, 2019) can be followed below.

As usually defined, the inhibition is how much of the control response was suppressed.

For assay [1], the system named is Tyrosine-protein kinase ABL1 (Homo sapiens), P00519 [E255K]. Nature of the assay: Inhibition of human phosphorylated ABL1 E255K mutant (S229 to K512 residues) expressed in mammalian expression system at 1 uM by Kinomescan method relative to control.
Assay [2] concerns the target Tyrosine-protein kinase ABL1 (Homo sapiens) (UniProt P00519). The experiment in a line: Inhibition of wild-type human non-phosphorylated ABL1 (S229 to K512 residues) expressed in mammalian expression system at 1 uM by Kinomescan method relative to control.
Assay [3] addresses Ankyrin repeat and protein kinase domain-containing protein 1 (Homo sapiens) (UniProt Q8NFD2). The experiment in a line: Inhibition of wild-type human partial length ANKK1 (M1 to A305 residues) expressed in mammalian expression system at 1 uM by Kinomescan method relative to control.
Assay [4] has as its target Dual specificity tyrosine-phosphorylation-regulated kinase 1B (Homo sapiens) (UniProt Q9Y463). Nature of the assay: Inhibition of wild-type human full length DYRK1B (M1 to S629 residues) expressed in bacterial expression system at 1 uM by Kinomescan method relative to control.
The target in assay [5] is Ephrin type-B receptor 4 (Homo sapiens) (UniProt P54760). The experiment in a line: Inhibition of wild-type human partial length EPHB4 (H585 to G892 residues) expressed in bacterial expression system at 1 uM by Kinomescan method relative to control.
In assay [6] the target is Fibroblast growth factor receptor 3 (Homo sapiens) (UniProt P22607). The experiment in a line: Inhibition of wild-type human partial length FGFR3 (R442 to S771 residues) expressed in bacterial expression system at 1 uM by Kinomescan method relative to control.
In assay [7] the target is Homeodomain-interacting protein kinase 3 (Homo sapiens) (UniProt Q9H422). The experiment in a line: Inhibition of wild-type human partial length HIPK3 (M153 to N562 residues) expressed in mammalian expression system at 1 uM by Kinomescan method relative to control.
In assay [8] the target is Hormonally up-regulated neu tumor-associated kinase (Homo sapiens) (UniProt P57058). Nature of the assay: Inhibition of wild-type human partial length HUNK (A31 to K354 residues) expressed in bacterial expression system at 1 uM by Kinomescan method relative to control.
Assay [9] has as its target Serine/threonine-protein kinase 10 (Homo sapiens) (UniProt O94804). The experiment in a line: Inhibition of wild-type human partial length LOK (E16 to V314 residues) expressed in bacterial expression system at 1 uM by Kinomescan method relative to control.
Assay [10] has as its target Myosin light chain kinase, smooth muscle (Homo sapiens) (UniProt Q15746). Nature of the assay: Inhibition of wild-type human full length MYLK (M854 to E1845 residues) expressed in mammalian expression system at 1 uM by Kinomescan method relative to control.
The target in assay [11] is Serine/threonine-protein kinase pim-2 (Homo sapiens) (UniProt Q9P1W9). The experiment in a line: Inhibition of wild-type human partial length PIM2 (M1 to E291 residues) expressed in bacterial expression system at 1 uM by Kinomescan method relative to control.
Assay [12] has as its target Ribosomal protein S6 kinase alpha-2 (Homo sapiens) (UniProt Q15349). The experiment in a line: Inhibition of wild-type human partial length C-terminal RSK3 kinase domain 2 (V403 to K700 residues) expressed in bacterial expression system at 1 uM by Kinomescan method relative to control.
For assay [13], the target named is Dual specificity testis-specific protein kinase 1 (Homo sapiens) (UniProt Q15569). Nature of the assay: Inhibition of wild-type human full length TESK1 (R37 to S626 residues) expressed in bacterial expression system at 1 uM by Kinomescan method relative to control.
Assay [14] concerns the target TGF-beta receptor type-2 (Homo sapiens) (UniProt P37173). The experiment in a line: Inhibition of wild-type human partial length TGFBR2 (I218 to K567 residues) expressed in bacterial expression system at 1 uM by Kinomescan method relative to control.
Assay [15] concerns the target Casein kinase I isoform epsilon (Homo sapiens) (UniProt P49674). Nature of the assay: Inhibition of wild-type human full length CSNK1E (M1 to K416 residues) expressed in bacterial expression system at 10 uM by Kinomescan method relative to control.
Assay [16] has as its target Casein kinase I isoform gamma-1 (Homo sapiens) (UniProt Q9HCP0). Nature of the assay: Inhibition of wild-type human partial length CSNK1G1 (T15 to S353 residues) expressed in bacterial expression system at 10 uM by Kinomescan method relative to control.
The target in assay [17] is Ephrin type-A receptor 1 (Homo sapiens) (UniProt P21709). Nature of the assay: Inhibition of wild-type human partial length EPHA1 (V588 to I913 residues) expressed in bacterial expression system at 10 uM by Kinomescan method relative to control.
For assay [18], the target named is Vascular endothelial growth factor receptor 1 (Homo sapiens) (UniProt P17948). The experiment in a line: Inhibition of wild-type human partial length FLT1 (R781 to F1239 residues) expressed in bacterial expression system at 10 uM by Kinomescan method relative to control.
Assay [19] deals with Mast/stem cell growth factor receptor Kit (Homo sapiens), P10721 [V559D,T670I]. Nature of the assay: Inhibition of human partial length KIT V559D/T670I double mutant (Y545 to D952 residues) expressed in bacterial expression system at 10 uM by Kinomescan method relative to control.
The target in assay [20] is Mast/stem cell growth factor receptor Kit (Homo sapiens) (UniProt P10721). Nature of the assay: Inhibition of wild-type human partial length autoinhibited KIT (Y545 to D952 residues) expressed in mammalian expression system at 10 uM by Kinomescan method relative to control.
Assay [21] addresses Muscle, skeletal receptor tyrosine-protein kinase (Homo sapiens) (UniProt O15146). The experiment in a line: Inhibition of wild-type human partial length MUSK (M553 to V869 residues) expressed in bacterial expression system at 10 uM by Kinomescan method relative to control.
Assay [22] concerns the target Serine/threonine-protein kinase Nek3 (Homo sapiens) (UniProt P51956). The experiment in a line: Inhibition of wild-type human full length NEK3 (M1 to R506 residues) expressed in mammalian expression system at 10 uM by Kinomescan method relative to control.
The target of assay [23] is Serine/threonine-protein kinase pim-1 (Homo sapiens) (UniProt P11309). The experiment in a line: Inhibition of wild-type human partial length PIM1 (A15 to K313 residues) expressed in bacterial expression system at 10 uM by Kinomescan method relative to control.
Assay [24] deals with Serine/threonine-protein kinase D3 (Homo sapiens) (UniProt O94806). The experiment in a line: Inhibition of wild-type human partial length PRKD3 (S543 to E863 residues) expressed in bacterial expression system at 10 uM by Kinomescan method relative to control.
Assay [25] relates to Proto-oncogene tyrosine-protein kinase receptor Ret (Homo sapiens), P07949 [V804M]. Nature of the assay: Inhibition of human partial length RET V804M mutant (E713 to D1014 residues) expressed in bacterial expression system at 10 uM by Kinomescan method relative to control.
Assay [26] deals with Serine/threonine-protein kinase WNK1 (Homo sapiens) (UniProt Q9H4A3). The experiment in a line: Inhibition of wild-type human partial length WNK1 (Q194 to A490 residues) expressed in mammalian expression system at 10 uM by Kinomescan method relative to control.
Assay [27] deals with Tyrosine-protein kinase BTK (Homo sapiens, UniProt Q06187). The conditions noted are these: 10 uM.

For `O=C(Nc1cccc([C@@H]2CN(c3ncnc4[nH]ccc34)CCN2CCO)c1)Nc1c(F)cccc1N1CCCC1`, the inhibition in assay [1] stood at 43%; in [2] it was 61%; in [3], 100%; in [4], 95%; in assay [5], 95%; in [6], 83%. Also, the inhibition turned out to be 86% in assay [7]; 100% in assay [8]; 11% in [9]; 100% in assay [10]; 100% in [11]; 97% in [12]. Also, the inhibition in assay [13] and in [14] was 100% in each case.

Take `O=C(Nc1cccc([C@H]2CCCN(c3ncnc4[nH]ccc34)C2)c1)Nc1ccccc1N1CCCC1`: the inhibition in assay [15] is 90%; in [16], 99%; in assay [17], 89%; in assay [18], 2.2%; in [19], 0.3%; in [20] it was 71%. The inhibition turned out to be 97% in [21]; 59% in [22]; 84% in assay [23]; 100% in [24]; 0.65% in [25]; 72% in assay [26]. Moreover, the inhibition in assay [27] was 0.6%.
